Test results taken from US8455475B2 (Gruenenthal GmbH, priority 2009, dated 2013).

Target: T1, rat B1R (bradykinin receptor 1) (Rattus norvegicus, UniProt P97583)
T1 construct: expressed in transfected cells; host or cells: CHO K1 cells
T1 sequence (P97583 1-337): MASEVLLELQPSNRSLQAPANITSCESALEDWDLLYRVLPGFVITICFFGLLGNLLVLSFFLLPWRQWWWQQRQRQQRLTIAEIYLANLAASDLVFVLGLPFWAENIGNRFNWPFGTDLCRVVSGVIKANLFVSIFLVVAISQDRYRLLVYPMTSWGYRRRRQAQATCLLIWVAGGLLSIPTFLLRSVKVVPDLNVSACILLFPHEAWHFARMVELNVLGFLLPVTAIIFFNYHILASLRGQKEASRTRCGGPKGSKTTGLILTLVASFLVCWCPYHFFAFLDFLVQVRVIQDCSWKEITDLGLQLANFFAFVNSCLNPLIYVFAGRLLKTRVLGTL
Assay: FLIPR Ca2+ assay (Fluo-4) on CHO K1 cells stably transfected with the B1R gene of the rat (rB1R cells): % inhibition at 10 μM / IC50, agonist Des-Arg9-bradykinin
Assay type: cell-based
Conditions: for inhibition at 10 µM: CHO-K1, rat B1R
In short: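 Antagonism is measured as the drop in peak Fluo-4 Ca2+ signal when the EC80 agonist follows 10–20 min compound exposure. The single-point screen uses 10 μM; IC50 uses several concentrations. Values are given as % of maximal achievable inhibition.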

O=C(c1ccc2c(c1)C(NS(=O)(=O)c1c(Cl)cc(Cl)cc1Cl)CC2)N1CCC2(CCN(c3ccncc3)CC2)C1 (stereo not shown) [IND_CC-407, 2,4,6-Trichloro-N-[6-(8-pyridin-4-yl-2,8-diazaspiro[4.5]decane-2-carbonyl)-2,3-dihydro-1H-inden-1-yl]-benzenesulfonic acid amide]
inhibition at 10 µM: 101%

CC(C)CC(=O)NC1CCc2ccc(C(=O)N3CCC4(CCN(c5ccncc5)CC4)C3)cc21 (stereo not shown) [IND_CC-409, 3-Methyl-N-[6-(8-pyridin-4-yl-2,8-diazaspiro[4.5]decane-2-carbonyl)-2,3-dihydro-1H-inden-1-yl]-butyramide]
inhibition at 10 µM: 102%

CCCC(=O)N(C)C1CCc2ccc(C(=O)N3CCC4(CC3)CCN(c3ccncc3)CC4)cc21 (stereo not shown) [IND_CC-410, N-Methyl-N-[6-(9-pyridin-4-yl-3,9-diazaspiro[5.5]undecane-3-carbonyl)-2,3-dihydro-1H-inden-1-yl]-butyramide]
inhibition at 10 µM: 97%

CCCC(=O)NC1CCc2ccc(C(=O)N3CCC4(CCN(c5ccncc5)CC4)C3)cc21 (stereo not shown) [IND_CC-411, N-[6-(8-Pyridin-4-yl-2,8-diazaspiro[4.5]decane-2-carbonyl)-2,3-dihydro-1H-inden-1-yl]-butyramide]
inhibition at 10 µM: 101%

CN(C(=O)CCC1CCCC1)C1CCc2ccc(C(=O)N3CCC4(CC3)CCN(c3ccncc3)CC4)cc21 (stereo not shown) [IND_CC-412, 3-Cyclopentyl-N-methyl-N-[6-(9-pyridin-4-yl-3,9-diazaspiro[5.5]undecane-3-carbonyl)-2,3-dihydro-1H-inden-1-yl]-propionamide]
inhibition at 10 µM: 99%

O=C(CCC1CCCC1)NC1CCc2ccc(C(=O)N3CCC4(CCN(c5ccncc5)CC4)C3)cc21 (stereo not shown) [IND_CC-413, 3-Cyclopentyl-N-[6-(8-pyridin-4-yl-2,8-diazaspiro[4.5]decane-2-carbonyl)-2,3-dihydro-1H-inden-1-yl]-propionamide]
inhibition at 10 µM: 103%

CN(C(=O)C1CCC1)C1CCc2ccc(C(=O)N3CCC4(CC3)CCN(c3ccncc3)CC4)cc21 (stereo not shown) [IND_CC-414, N-Methyl-N-[6-(9-pyridin-4-yl-3,9-diazaspiro[5.5]undecane-3-carbonyl)-2,3-dihydro-1H-inden-1-yl]-cyclobutanecarboxylic acid amide]
inhibition at 10 µM: 102%

O=C(NC1CCc2ccc(C(=O)N3CCC4(CCN(c5ccncc5)CC4)C3)cc21)C1CCC1 (stereo not shown) [IND_CC-415, N-[6-(8-Pyridin-4-yl-2,8-diazaspiro[4.5]decane-2-carbonyl)-2,3-dihydro-1H-inden-1-yl]-cyclobutanecarboxylic acid amide]
inhibition at 10 µM: 100%

CCC(C)C(=O)N(C)C1CCc2ccc(C(=O)N3CCC4(CC3)CCN(c3ccncc3)CC4)cc21 (stereo not shown) [IND_CC-416, N,2-Dimethyl-N-[6-(9-pyridin-4-yl-3,9-diazaspiro[5.5]undecane-3-carbonyl)-2,3-dihydro-1H-inden-1-yl]-butyramide]
inhibition at 10 µM: 101%

CCC(C)C(=O)NC1CCc2ccc(C(=O)N3CCC4(CCN(c5ccncc5)CC4)C3)cc21 (stereo not shown) [IND_CC-417, 2-Methyl-N-[6-(8-pyridin-4-yl-2,8-diazaspiro[4.5]decane-2-carbonyl)-2,3-dihydro-1H-inden-1-yl]-butyramide]
inhibition at 10 µM: 102%

CC(C)C(=O)N(C)C1CCc2ccc(C(=O)N3CCC4(CC3)CCN(c3ccncc3)CC4)cc21 (stereo not shown) [IND_CC-418, N,2-Dimethyl-N-[6-(9-pyridin-4-yl-3,9-diazaspiro[5.5]undecane-3-carbonyl)-2,3-dihydro-1H-inden-1-yl]-propionamide]
inhibition at 10 µM: 99%

CC(C)C(=O)NC1CCc2ccc(C(=O)N3CCC4(CCN(c5ccncc5)CC4)C3)cc21 (stereo not shown) [IND_CC-419, 2-Methyl-N-[6-(8-pyridin-4-yl-2,8-diazaspiro[4.5]decane-2-carbonyl)-2,3-dihydro-1H-inden-1-yl]-propionamide]
inhibition at 10 µM: 101%

CCC(CC)C(=O)NC1CCc2ccc(C(=O)N3CCC4(CCN(c5ccncc5)CC4)C3)cc21 (stereo not shown) [IND_CC-420, 2-Ethyl-N-[6-(8-pyridin-4-yl-2,8-diazaspiro[4.5]decane-2-carbonyl)-2,3-dihydro-1H-inden-1-yl]-butyramide]
inhibition at 10 µM: 100%

O=C(NC1CCc2ccc(C(=O)N3CCC4(CCN(S(=O)(=O)c5ccc(F)cc5F)CC4)C3)cc21)c1ccccc1Cl (stereo not shown) [IND_CC-500, 2-Chloro-N-[6-[8-[(2,4-difluoro-phenyl)sulfonyl]-2,8-diazaspiro[4.5]decane-2-carbonyl]-2,3-dihydro-1H-inden-1-yl]-benzamide]
inhibition at 10 µM: 51%

N#Cc1ccccc1S(=O)(=O)N1CCC2(CCN(C(=O)c3ccc4c(c3)C(NC(=O)c3ccccc3Cl)CC4)C2)CC1 (stereo not shown) [IND_CC-501, 2-Chloro-N-[6-[8-[(2-cyano-phenyl)sulfonyl]-2,8-diazaspiro[4.5]decane-2-carbonyl]-2,3-dihydro-1H-inden-1-yl]-benzamide]
inhibition at 10 µM: 56%

O=C(NC1CCc2ccc(C(=O)N3CCC4(CCN(C(=O)Nc5ccc(F)c(Cl)c5)CC4)C3)cc21)c1ccccc1Cl (stereo not shown) [IND_CC-502, 2-[3-[(2-Chloro-benzoyl)amino]-2,3-dihydro-1H-indene-5-carbonyl]-N-(3-chloro-4-fluoro-phenyl)-2,8-diazaspiro[4.5]decane-8-carboxylic acid amide]
inhibition at 10 µM: 71%

N#Cc1cccc(NC(=O)N2CCC3(CC2)CCN(C(=O)c2ccc4c(c2)C(NC(=O)c2ccccc2Cl)CC4)C3)c1 (stereo not shown) [IND_CC-503, 2-[3-[(2-Chloro-benzoyl)amino]-2,3-dihydro-1H-indene-5-carbonyl]-N-(3-cyano-phenyl)-2,8-diazaspiro[4.5]decane-8-carboxylic acid amide]
inhibition at 10 µM: 66%

O=C(NC1CCc2ccc(C(=O)N3CCC4(CCN(Cc5c(F)cccc5F)CC4)C3)cc21)c1ccccc1Cl (stereo not shown) [IND_CC-504, 2-Chloro-N-[6-[8-[(2,6-difluoro-phenyl)-methyl]-2,8-diazaspiro[4.5]decane-2-carbonyl]-2,3-dihydro-1H-inden-1-yl]-benzamide]
inhibition at 10 µM: 51%

CN(C(=O)c1ccccc1Cl)C1CCc2ccc(C(=O)N3CCC4(CCN(Cc5ccccc5C#N)CC4)C3)cc21 (stereo not shown) [IND_CC-505, 2-Chloro-N-[6-[8-[(2-cyano-phenyl)-methyl]-2,8-diazaspiro[4.5]decane-2-carbonyl]-2,3-dihydro-1H-inden-1-yl]-N-methyl-benzamide]
inhibition at 10 µM: 67%

CN(C(=O)c1ccccc1Cl)C1CCc2ccc(C(=O)N3CCC4(CCN(Cc5ccc6nccnc6c5)CC4)C3)cc21 (stereo not shown) [IND_CC-506, 2-Chloro-N-methyl-N-[6-[8-(quinoxalin-6-yl-methyl)-2,8-diazaspiro[4.5]decane-2-carbonyl]-2,3-dihydro-1H-inden-1-yl]-benzamide]
inhibition at 10 µM: 61%

O=C(NC1CCc2ccc(C(=O)N3CCC4(CCN(Cc5c[nH]cn5)CC4)CC3)cc21)c1ccccc1Cl (stereo not shown) [IND_CC-508, 2-Chloro-N-[6-[9-(1H-imidazol-4-yl-methyl)-3,9-diazaspiro[5.5]undecane-3-carbonyl]-2,3-dihydro-1H-inden-1-yl]-benzamide]
inhibition at 10 µM: 100%

O=C(NC1CCc2ccc(C(=O)N3CCC4(CCN(Cc5ccccn5)CC4)CC3)cc21)c1ccccc1Cl (stereo not shown) [IND_CC-509, 2-Chloro-N-[6-[9-(pyridin-2-yl-methyl)-3,9-diazaspiro[5.5]undecane-3-carbonyl]-2,3-dihydro-1H-inden-1-yl]-benzamide]
inhibition at 10 µM: 101%

O=C(NC1CCc2ccc(C(=O)N3CCC4(CCN(Cc5ccncc5)CC4)CC3)cc21)c1ccccc1Cl (stereo not shown) [IND_CC-510, 2-Chloro-N-[6-[9-(pyridin-4-yl-methyl)-3,9-diazaspiro[5.5]undecane-3-carbonyl]-2,3-dihydro-1H-inden-1-yl]-benzamide]
% Inhibition (rat B1R) at 10 μM (rat B1R, 10 µM): 95%

O=C(NC1CCc2ccc(C(=O)N3CCC4(CCN(Cc5cccnc5)CC4)CC3)cc21)c1ccccc1Cl (stereo not shown) [IND_CC-511, 2-Chloro-N-[6-[9-(pyridin-3-yl-methyl)-3,9-diazaspiro[5.5]undecane-3-carbonyl]-2,3-dihydro-1H-inden-1-yl]-benzamide]
inhibition at 10 µM: 94%

Cn1cccc1CN1CCC2(CC1)CCN(C(=O)c1ccc3c(c1)C(NC(=O)c1ccccc1Cl)CC3)CC2 (stereo not shown) [IND_CC-512, 2-Chloro-N-[6-[9-[(1-methyl-1H-pyrrol-2-yl)-methyl]-3,9-diazaspiro[5.5]undecane-3-carbonyl]-2,3-dihydro-1H-inden-1-yl]-benzamide]
inhibition at 10 µM: 92%

O=C(NC1CCc2ccc(C(=O)N3CCC4(CCN(Cc5c(F)cccc5F)CC4)CC3)cc21)c1ccccc1Cl (stereo not shown) [IND_CC-513, 2-Chloro-N-[6-[9-[(2,6-difluoro-phenyl)-methyl]-3,9-diazaspiro[5.5]undecane-3-carbonyl]-2,3-dihydro-1H-inden-1-yl]-benzamide]
inhibition at 10 µM: 98%

O=C(NC1CCc2ccc(C(=O)N3CCC4(CCN(Cc5ccc(F)c(F)c5)CC4)CC3)cc21)c1ccccc1Cl (stereo not shown) [IND_CC-514, 2-Chloro-N-[6-[9-[(3,4-difluoro-phenyl)-methyl]-3,9-diazaspiro[5.5]undecane-3-carbonyl]-2,3-dihydro-1H-inden-1-yl]-benzamide]
inhibition at 10 µM: 102%

O=C(NC1CCc2ccc(C(=O)N3CCC4(CCN(Cc5cc(F)ccc5F)CC4)CC3)cc21)c1ccccc1Cl (stereo not shown) [IND_CC-515, 2-Chloro-N-[6-[9-[(2,5-difluoro-phenyl)-methyl]-3,9-diazaspiro[5.5]undecane-3-carbonyl]-2,3-dihydro-1H-inden-1-yl]-benzamide]
inhibition at 10 µM: 104%
